Consider three compounds from US20110294789A1, “COMPOUNDS FOR RHO KINASE INHIBITION AND FOR IMPROVING LEARNING AND MEMORY” (AMNESTIX, INC., priority 2008, published 2011).

The target in one experiment is over 400 kinases. In words: KinomeScan competition binding assay, kinase specificity. Particulars: 10 μM; competition of more than 50% regarded as inhibitory; FIG. 13A. The text has this: (§1) Based on a competition binding assay that quantitatively measures the ability of a test compound to compete with an immobilized, active-site directed ligand it is possible to scan the competitive effect of the test compound for a broad variety of kinases in parallel (KinomeScan, Ambit, San Diego, Calif., USA; Fabian et al., Nat. Biotechnol. 2005, 23, 329). Based on this analysis it is possible to assess the inhibitory specificity of a test compound. […] As result of the assay one obtains the percentage of competition of the active-site directed ligand for each of the over 400 kinases of the test due to the incubation with the test compounds. Competitions of more than 50% were regarded as significant indicating for inhibition of the particular kinase.

In the next experiment the test system is PIM kinases. Nature of the experiment: KinomeScan competition binding assay. Particulars: 10 μM; competition of more than 50% regarded as inhibitory.
From the text: as §1

The target in another experiment is T1, IRAK1 (Homo sapiens, UniProt P51617).
T1 construct: purchased Ambit, San Diego, Calif., USA (KinomeScan)
In words: KinomeScan competition binding assay. Particulars: 10 μM; competition of more than 50% regarded as inhibitory.
From the text: as §1

Experiment [1] deals with T2, recombinant active rho kinase 2 (ROCK) (Homo sapiens, UniProt O75116).
T2 construct: purchased Upstate, Lake Placid, N.Y., USA (enzyme); Cell Biolabs Inc., San Diego (assay kit with substrate)
Nature of the experiment: ROCK inhibition assay (ROCK assay kit, anti-phospho-MYPT1 detection). It counts as biochemical. Conditions: test compounds 0.1 to 100 μM; compared to Fasudil in corresponding concentration; FIG. 12. As to the method: The inhibitory effect of test compounds on rho kinase 2 (ROCK) was analyzed using recombinant active rho kinase 2 (Upstate, Lake Placid, N.Y., USA) and the a ROCK assay kit (Cell Biolabs Inc., San Diego, Calif., USA) following the manufacture's instruction. Recombinant rho kinase 2 was dissolved in kinase reaction buffer including the kinase substrate in the presence of the test compound. Test compounds were added in a final concentration of 0.1 to 100 μM. Assays without test compound served as control. […] Assays were incubated at 30° C. for 30-60 min and subsequently stopped by adding 50% of the reaction-volume of 0.5 M EDTA, pH 8.0. After washing steps phosphorylated kinase substrate was quantified using a specific anti-phospho-MYPT1 (Thr696) antibody and a HRP-conjugated secondary antibody.

For experiment [2], the system named is Hippocampal primary neurons. In words: Neurite outgrowth analysis. Format: cell-based, rats. Particulars: 1.5 μM or 15 μM, 2 days in culture; versus negative control and Fasudil; FIG. 15. As to the method:
The effect of test compounds on neurite outgrowth can be assessed in vitro. Hippocampal primary neurons prepared from embryonic (E18) rats were cultured in Neurobasal medium (Invitrogen) enriched with B27, bFGF, Penicillin/Streptomycin, L-Glutamin. For the neurite outgrowth assay the medium is mixed with conditioned medium in a 1:1 ratio. The neurites were immunocytochemically stained using an antibody against the axonal marker neurofilament-light. Photographs were acquired at 40-fold magnification (Olympus IX81) and assembled to allow analysis of whole individual neurons. The test compounds 1-(8-methyl-5 isoquinoline-sulfonyl)homopiperazine and 1-(1-chloro-8-methoxy-5 isoquinoline-sulfonyl)homopiperazine were added to the medium in the final concentration of 1.5 μM or 15 μM 1 h after plating in comparison to adding water which served as negative control. […] After 2 days in culture the cells were fixed. Photographs and neurite tracing were performed in a blinded manner.

The next experiment has as its system hippocampal slices. Nature of the experiment: In vitro LTP analysis (theta burst stimulation, fEPSP slope). It counts as cell-based, Wistar rats. The text has this:
Long-term potentiation (LTP) is an in vitro model for the assessment of memory function. Therefore, it allows analysis of test compounds, e.g. the compounds of the invention, e.g. 1-(8-methyl-5 isoquinoline-sulfonyl)homopiperazine and 1-(1-chloro-8-methoxy-5 isoquinoline-sulfonyl)homopiperazine, for memory enhancing potential. Experiments were done on hippocampal slices from 3-4 week-old Wistar rats. The rats were sacrificed by decapitation without prior anesthesia. Brains were quickly removed and soaked in ice cold artificial cerebrospinal fluid (ACSF) containing: NaCl (124 mM), KCl (5 mM), Na2HPO4 (1.2 mM), NaHCO3 (26 mM), CaCl2 (2 mM), MgSO4 (2 mM), and glucose (10 mM), that was continuously bubbled with carbogen (95% O2, 5% CO2). Slices were then cut at 400 μm thickness using a vibratome and incubated in ACSF at room temperature for at least 1 h before starting recordings. All compounds used were diluted in ACSF at the concentrations needed and were prepared fresh on the day of recording from 100 mM stock solutions. To assure proper solubility of the compounds, stock solutions were made with DMSO. For recording, slices were transferred to a 4-channel slice chamber (Synchroslice, Lohmann Research Equipment) that allows simultaneous recording of 4 brain slices. Each slice was placed in a separate submerged type slice chamber were it was continuously superfused with temperature controlled (34° C.) ACSF or ACSF at a rate of 2 ml/min. Under visual control by a camera system, a bipolar stimulation electrode (Rhoades) was placed in the Schaffer collaterals and a single biphasic electrical stimulus of a duration of 200 μs and an amplitude of 200 μA was applied at 0.05 Hz. A platinum/tungsten electrode was then lowered into the CA1 dendritic layer under visual control until stable amplitudes of the recorded fEPSP were achieved. After a recording period of at least 10 min, the input-output relationship between stimulus amplitude and fEPSP amplitude was achieved separately for each slice. […] To induce LTP, 10 theta bursts were applied. Each burst consisted of 4 biphasic stimuli of […] and 600 μA amplitude at a 10 ms interstimulus interval. The interburst interval was 200 ms. Each recording cycle started with a 15 min period in which electrical stimuli were applied at 0.05 Hz to assure stability of the fEPSP amplitude. Then, test the compound was washed in for a period of 30 min during which stimulation was continued at 0.05 Hz and fEPSPs were continuously recorded. LTP induction by theta burst stimulation was started 30 min after wash in. Recording was continued after LTP induction for at least 60 min, 30 min after LTP induction, compounds were washed out. All slices recorded simultaneously were treated with the same time schedule. From the recorded data, the amplitudes of the evoked fEPSP were automatically calculated by the recording software (Synchroslice data acquisition and analysis, LRE) as the negative peak of the postsynaptic signal with respect to baseline and plotted online. All recorded signals were digitally stored for later offline analysis, in particular for fEPSP negative slope calculation. From the stored single sweeps, the slope was calculated between 30% and 70% of the maximum fEPSP amplitude. To allow comparison of data obtained from different slices, fEPSP slopes were normalized to the control value (100%).
Effects induced by applied substances were tested for statistical significance using either the Student's t-test or the Mann-Whitney Rank Sum Test, significance was assumed if p<0.05. Measurements for each experimental condition were repeated six times. Results are given as means from n=5 slices and standard deviation (SD). […] This could be due to the activation of undesired kinases and/or pathways at this concentration. […]

For another experiment, the target named is T3, ROCK2 (Homo sapiens, UniProt O75116).
T3 construct: purchased Ambit, San Diego, Calif., USA (KinomeScan)
In words: KinomeScan competition binding assay. Particulars: 10 μM; compared to Fasudil.
From the text: as §1

For experiment [3] the following is noted: Huentelman et al. 2009; WO 2008/019395; cited from earlier work.
In experiment [4] the test system is undifferentiated PC12 cells. Conditions: Zhang et al. 2006; cited from earlier work.

“Also recorded” adds a separate entry of the source.

T2 sequence (O75116 whole entry): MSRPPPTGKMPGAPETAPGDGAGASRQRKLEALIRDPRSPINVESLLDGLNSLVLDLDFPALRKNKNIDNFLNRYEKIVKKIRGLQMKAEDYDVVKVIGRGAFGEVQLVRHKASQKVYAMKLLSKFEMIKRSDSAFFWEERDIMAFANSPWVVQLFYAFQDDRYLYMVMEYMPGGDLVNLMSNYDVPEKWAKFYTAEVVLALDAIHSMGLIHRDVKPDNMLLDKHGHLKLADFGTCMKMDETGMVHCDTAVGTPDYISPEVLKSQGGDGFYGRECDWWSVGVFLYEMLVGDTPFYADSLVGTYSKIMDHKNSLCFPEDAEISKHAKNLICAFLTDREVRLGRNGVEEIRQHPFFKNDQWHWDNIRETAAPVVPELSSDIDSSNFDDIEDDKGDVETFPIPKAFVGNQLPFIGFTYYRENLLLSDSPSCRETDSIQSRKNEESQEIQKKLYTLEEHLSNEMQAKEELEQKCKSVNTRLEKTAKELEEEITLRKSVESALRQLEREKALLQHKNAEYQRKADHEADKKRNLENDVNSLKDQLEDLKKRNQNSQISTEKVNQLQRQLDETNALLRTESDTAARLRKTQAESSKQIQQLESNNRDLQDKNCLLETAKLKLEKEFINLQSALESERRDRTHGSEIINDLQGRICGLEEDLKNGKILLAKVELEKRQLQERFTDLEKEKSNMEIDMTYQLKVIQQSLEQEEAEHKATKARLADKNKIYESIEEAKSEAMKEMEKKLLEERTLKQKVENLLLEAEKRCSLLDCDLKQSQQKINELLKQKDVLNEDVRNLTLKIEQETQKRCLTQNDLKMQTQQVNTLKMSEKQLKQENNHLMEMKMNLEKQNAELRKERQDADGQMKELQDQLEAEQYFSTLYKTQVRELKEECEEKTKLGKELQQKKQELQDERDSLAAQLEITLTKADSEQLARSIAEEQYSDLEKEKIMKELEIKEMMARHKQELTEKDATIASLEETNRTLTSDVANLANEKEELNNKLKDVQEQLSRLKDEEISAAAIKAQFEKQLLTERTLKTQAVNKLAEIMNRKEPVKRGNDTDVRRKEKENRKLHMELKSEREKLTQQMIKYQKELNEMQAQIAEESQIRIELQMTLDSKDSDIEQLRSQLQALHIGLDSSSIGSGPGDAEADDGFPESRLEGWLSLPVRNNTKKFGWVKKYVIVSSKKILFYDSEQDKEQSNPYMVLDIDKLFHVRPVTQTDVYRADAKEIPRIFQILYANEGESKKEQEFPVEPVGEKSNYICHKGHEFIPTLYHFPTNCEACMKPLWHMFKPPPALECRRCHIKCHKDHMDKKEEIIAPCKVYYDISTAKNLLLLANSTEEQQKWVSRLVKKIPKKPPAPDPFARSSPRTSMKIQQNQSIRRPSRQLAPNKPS
T3 sequence (O75116 whole entry): as above
T1 sequence (P51617 whole entry): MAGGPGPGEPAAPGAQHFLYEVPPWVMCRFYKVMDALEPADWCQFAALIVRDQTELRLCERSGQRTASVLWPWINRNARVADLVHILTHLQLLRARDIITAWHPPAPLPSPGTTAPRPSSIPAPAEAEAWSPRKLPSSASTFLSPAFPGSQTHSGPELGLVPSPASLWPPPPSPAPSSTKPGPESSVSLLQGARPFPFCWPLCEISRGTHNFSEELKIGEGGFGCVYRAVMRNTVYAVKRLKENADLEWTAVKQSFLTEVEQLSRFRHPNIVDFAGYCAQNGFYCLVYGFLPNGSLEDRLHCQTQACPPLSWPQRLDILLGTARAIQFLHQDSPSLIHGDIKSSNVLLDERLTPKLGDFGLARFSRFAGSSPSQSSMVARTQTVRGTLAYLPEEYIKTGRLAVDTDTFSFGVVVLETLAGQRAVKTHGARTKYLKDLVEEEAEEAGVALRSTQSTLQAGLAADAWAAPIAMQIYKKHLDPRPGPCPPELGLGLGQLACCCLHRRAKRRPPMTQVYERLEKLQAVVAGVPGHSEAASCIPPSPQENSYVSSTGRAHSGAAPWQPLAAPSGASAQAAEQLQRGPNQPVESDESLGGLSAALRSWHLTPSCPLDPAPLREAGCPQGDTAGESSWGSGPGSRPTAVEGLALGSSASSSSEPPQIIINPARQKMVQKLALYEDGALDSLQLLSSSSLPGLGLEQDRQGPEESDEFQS

As for `COc1ccc(S(=O)(=O)N2CCCNCC2)c2ccnc(Cl)c12` [1-(1-chloro-8-methoxy-5 isoquinoline-sulfonyl)homopiperazine], the “kinase specificity / kinase interaction spectrum” value on over 400 kinases is “much more specific ROCK inhibitor than Fasudil; also recorded: very specific ROCK inhibitor”. In addition, the “inhibitory effect for PIM kinases” value in the experiment with PIM kinases was “mainly inhibitory effect only for PIM kinases and IRAK1”. At IRAK1, the “inhibitory effect for IRAK1” value was “mainly inhibitory effect only for PIM kinases and IRAK1”. The “ROCK inhibition (rho kinase 2 activity)” value in experiment [1] is reported as “enhanced ROCK inhibition compared to Fasudil”. In addition, in experiment [2], the “neurite outgrowth promoting activity” value is recorded as “did not significantly promote neurite outgrowth”. Also, in the experiment with hippocampal slices, the “enhancement of LTP (overall conclusion)” value is listed as “significant enhancement of LTP”. For the same compound, the “effect on LTP” value with hippocampal slices (1 μM) was “clearly superior LTP stimulating effect compared to fasudil”; in the experiment on hippocampal slices (10 μM), “LTP induction is unaltered but the maintenance seems to be impaired”; in the experiment on hippocampal slices (100 μM), “LTP induction is blocked completely”. For the same compound, the “synaptic activity upon removal of the substance” value in the experiment with hippocampal slices (100 μM, after wash out) is given as “clear rebound of synaptic activity”.

As to `Cc1ccc(S(=O)(=O)N2CCCNCC2)c2ccncc12` [1-(8-methyl-5 isoquinoline-sulfonyl)homopiperazine], the “kinase specificity / kinase interaction spectrum” value at over 400 kinases is recorded as “broader kinase interaction spectrum comparable to that of Fasudil”. In addition, the “affinity to ROCK2” value on ROCK2 is “much stronger affinity to ROCK2 than Fasudil”. The “ROCK inhibition (rho kinase 2 activity)” value in [1] is listed as “enhanced ROCK inhibition compared to Fasudil”. Also, in experiment [2], the “neurite outgrowth promoting activity” value is “superior neurite outgrowth promoting activity”. For the same compound, the “effect on LTP” value with hippocampal slices (1 μM) was “blocks LTP”; in the experiment on hippocampal slices (100 μM), “the ability of LTP induction is re-established”.

`O=S(=O)(c1cccc2cnccc12)N1CCCNCC1` [Fasudil]: the learning and memory entry in experiment [3] is “can enhance learning and memory”. The neurite outgrowth result in experiment [4] is reported as “increase neurite outgrowth”.
